This assay addresses T1, human IL-17AA (Homo sapiens, UniProt Q16552).
T1 construct: host or cells: HEK (human embryonic kidney) cells
T1 sequence (Q16552 24-155): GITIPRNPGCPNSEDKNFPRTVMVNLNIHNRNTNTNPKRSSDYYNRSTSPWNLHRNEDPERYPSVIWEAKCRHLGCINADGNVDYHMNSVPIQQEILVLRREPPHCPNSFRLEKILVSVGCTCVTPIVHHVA
In words: IL-8 release assay in human epithelial keratinocytes adult (HEKa). In kind it is cell-based. The following applies: HEKa cells, 3 ng/mL HEK-human IL-17AA + 10 ng/mL human TNFalpha; read-out: Rel EC50 IL-8 release assay. The gist of the method: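 Adult human epidermal keratinocytes stimulated 68-72 h at 37 °C with 3 ng/mL HEK-derived human IL-17AA plus 10 ng/mL TNF-alpha (final) in the presence of compound; TNF-alpha alone defines 100% inhibition. Secreted IL-8 measured by HTRF as percent of controls; relative IC50/Emax from four-parameter fit (r^2>0.9), cytotoxicity by PrestoBlue.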
Regarding `Cc1n[nH]c(C)c1-c1ccc(NC(=O)[C@@H](NC(=O)c2ccnn2C(C)C)[C@H]2CCOc3ccccc32)cc1` [Example 47, N-[(1S)-1-[(4S)-chroman-4-yl]-2-[4-(3,5-dimethyl-1H-pyrazo1-4-yl)anilino]-2-oxo-ethyl]-2-isopropyl-pyrazole-3-carboxamide], the EC50 – broadly, the concentration that produces a half-maximal response – is less than 100 nM.

Turning to `Cc1n[nH]c(C)c1-c1ccc(NC(=O)[C@@H](NC(=O)c2cnc(C)n2C)C2CCCCC2)cc1` [Example 48, N-[(1S)-1-cyclohexyl-2-[4-(3,5-dimethyl-1H-pyrazol-4-yl)anilino]-2-oxo-ethyl]-2,3-dimethyl-imidazole-4-carboxamide], the EC50 is more than 1000 nM.

For `Cc1n[nH]c(C)c1-c1ccc(NC(=O)[C@@H](NC(=O)c2cncn2C)C2CCCCC2)cc1` [Example 49, N-[(1S)-1-cyclohexyl-2-[4-(3,5-dimethyl-1H-pyrazol-4-yl)anilino]-2-oxo-ethyl]-3-methyl-imidazole-4-carboxamide], the EC50 was more than 1000 nM.

Take `Cc1n[nH]c(C)c1-c1ccc(NC(=O)[C@@H](NC(=O)c2c(C)ncn2C)C2CCCCC2)cc1` [Example 50, N-[(1S)-1-cyclohexyl-2-[4-(3,5-dimethyl-1H-pyrazol-4-yl)anilino]-2-oxo-ethyl]-3,5-dimethyl-imidazole-4-carboxamide]: the EC50 is more than 1000 nM.

Consider `Cc1ncsc1CC(=O)N[C@H](C(=O)Nc1ccc(-c2c(C)n[nH]c2C)cc1)C1CCCCC1` [Example 51, (2S)-2-cyclohexyl-N-[4-(3,5-dimethyl-1H-pyrazol-4-yl)phenyl]-2-[[2-(4-methylthiazol-5-yl)acetyl]amino]acetamide], for which the EC50 was more than 1000 nM.

Turning to `Cc1ncc(CC(=O)N[C@H](C(=O)Nc2ccc(-c3c(C)n[nH]c3C)cc2)C2CCCCC2)s1` [Example 52, (2S)-2-cyclohexyl-N-[4-(3,5-dimethyl-1H-pyrazol-4-yl)phenyl]-2-[[2-(2-methylthiazol-5-yl)acetyl]amino]acetamide], the EC50 was more than 1000 nM.

For the molecule `Cc1n[nH]c(C)c1-c1ccc(NC(=O)[C@@H](NC(=O)Cn2ccnc2C)C2CCCCC2)cc1` [Example 53, (2S)-2-cyclohexyl-N-[4-(3,5-dimethyl-1H-pyrazol-4-yl)phenyl]-2-[[2-(2-methylimidazol-1-yl)acetyl]amino]acetamide], the EC50 is more than 1000 nM.

Take `Cc1n[nH]c(C)c1-c1ccc(NC(=O)[C@@H](NC(=O)Cc2ccc(N(C)C)cc2)C2CCCCC2)cc1` [Example 54, (2S)-2-cyclohexyl-2-[[2-(4-dimethylaminophenyl)acetyl]amino]-N-[4-(3,5-dimethyl-1H-pyrazol-4-yl)phenyl]acetamide]: the EC50 fell in the range of 100 to 1000 nM.

For `Cc1n[nH]c(C)c1-c1ccc(NC(=O)[C@@H](NC(=O)C(F)(F)c2ccccc2)C2CCCCC2)cc1` [Example 55, N-[(1S)-1-cyclohexyl-2-[4-(3,5-dimethyl-1H-pyrazol-4-yl)anilino]-2-oxo-ethyl]-2,2-difluoro-2-phenyl-acetamide], the EC50 was 100 to 1000 nM.

Take `CCC(F)(F)C(=O)N[C@H](C(=O)Nc1ccc(-c2c(C)n[nH]c2C)cc1)C1CCCCC1` [Example 56, N-[(1S)-1-cyclohexyl-2-[4-(3,5-dimethyl-1H-pyrazol-4-yl)anilino]-2-oxo-ethyl]-2,2-difluoro-butanamide]: the EC50 is 100 to 1000 nM.

Turning to `Cc1n[nH]c(C)c1-c1ccc(NC(=O)[C@@H](NC(=O)C2(C)CC2)C2CCCCC2)cc1` [Example 57, N-[(1S)-1-cyclohexyl-2-[4-(3,5-dimethyl-1H-pyrazol-4-yl)anilino]-2-oxo-ethyl]-1-methyl-cyclopropanecarboxamide], the EC50 lay within 100 to 1000 nM.

Consider `Cc1nocc1C(=O)N[C@H](C(=O)Nc1ccc(-c2c(C)n[nH]c2C)cc1)C1CCCCC1` [Example 58, N-[(1S)-1-cyclohexyl-2-[4-(3,5-dimethyl-1H-pyrazol-4-yl)anilino]-2-oxo-ethyl]-3-methyl-isoxazole-4-carboxamide], for which the EC50 lay in the range of 100 to 1000 nM.

Consider `Cc1nocc1C(=O)N[C@H](C(=O)Nc1ccc(-c2c(C)n[nH]c2C)cc1)C1CCCCCC1` [Example 59, N-[(1S)-1-cycloheptyl-2-[4-(3,5-dimethyl-1H pyrazol-4-yl)anilino]-2-oxo-ethyl]-3-methyl-isoxazole-4-carboxamide], for which the EC50 was less than 100 nM.

For the molecule `Cc1n[nH]c(C)c1-c1ccc(NC(=O)[C@@H](NC(=O)c2cnnn2C)C2CCCCC2)cc1` [Example 60, N-[(1S)-1-cyclohexyl-2-[4-(3,5-dimethyl-1H-pyrazol-4-yl)anilino]-2-oxo-ethyl]-3-methyl-triazole-4-carboxamide], the EC50 lay in the range of 100 to 1000 nM.

Turning to `Cc1n[nH]c(C)c1-c1ccc(NC(=O)[C@@H](NC(=O)c2cnnn2-c2ccccc2)C2CCCCC2)cc1` [Example 61, N-[(1S)-1-cyclohexyl-2-[4-(3,5-dimethyl-1H-pyrazol-4-yl)anilino]-2-oxo-ethyl]-3-phenyl-triazole-4-carboxamide], the EC50 is 100 to 1000 nM.

Take `Cc1n[nH]c(C)c1-c1ccc(NC(=O)[C@@H](NC(=O)c2cnnn2C)C2CCCCCC2)cc1` [Example 62, N-[(1S)-1-cycloheptyl-2-[4-(3,5-dimethyl-1H-pyrazol-4-yl)anilino]-2-oxo-ethyl]-3-methyl-triazole-4-carboxamide]: the EC50 lay within 100 to 1000 nM.

`Cc1n[nH]c(C)c1-c1ccc(NC(=O)[C@@H](NC(=O)c2cnnn2-c2ccccc2)C2CCCCCC2)cc1` [Example 63, N-[(1S)-1-cycloheptyl-2-[4-(3,5-dimethyl-1H-pyrazol-4-yl)anilino]-2-oxo-ethyl]-3-phenyl-triazole-4-carboxamide]: the EC50 was less than 100 nM.

With `Cc1n[nH]c(C)c1-c1ccc(NC(=O)[C@@H](NC(=O)c2c[nH]c3cnccc23)C2CCCCC2)cc1` [Example 64, N-[(1S)-1-cyclohexyl-2-[4-(3,5-dimethyl-1H-pyrazol-4-yl)anilino]-2-oxo-ethyl]-1H-pyrrolo[2,3-c]pyridine-3-carboxamide], the EC50 fell in the range of 100 to 1000 nM.

Take `Cc1n[nH]c(C)c1-c1ccc(NC(=O)[C@@H](NC(=O)c2c[nH]c3ncccc23)C2CCCCC2)cc1` [Example 65, N-[(1S)-1-cyclohexyl-2-[4-(3,5-dimethyl-1H-pyrazol-4-yl)anilino]-2-oxo-ethyl]-1H-pyrrolo[2,3-b]pyridine-3-carboxamide]: the EC50 is more than 1000 nM.

Turning to `Cc1n[nH]c(C)c1-c1ccc(NC(=O)[C@@H](NC(=O)C2(F)CC2)C2CCCCC2)cc1` [Example 66, N-[(1S)-1-cyclohexyl-2-[4-(3,5-dimethyl-1H-pyrazol-4-yl)anilino]-2-oxo-ethyl]-1-fluoro-cyclopropanecarboxamide], the EC50 is 100 to 1000 nM.

As for `Cc1n[nH]c(C)c1-c1ccc(NC(=O)[C@@H](NC(=O)C2(F)CC2)C2CCC(F)(F)CC2)cc1` [Example 67, N-[(1S)-1-(4,4-difluorocyclohexyl)-2-[4-(3,5-dimethyl-1H-pyrazol-4-yl)anilino]-2-oxo-ethyl]-1-fluoro-cyclopropanecarboxamide], the EC50 is more than 1000 nM.

Consider `Cc1n[nH]c(C)c1-c1ccc(NC(=O)[C@@H](NC(=O)c2cnn3ccccc23)C2CCCCC2)cc1` [Example 68, N-[(1S)-1-cyclohexyl-2-[4-(3,5-dimethyl-1H-pyrazol-4-yl)anilino]-2-oxo-ethyl]pyrazolo[1,5-a]pyridine-3-carboxamide], for which the EC50 lay within 100 to 1000 nM.

Take `Cc1n[nH]c(C)c1-c1ccc(NC(=O)[C@@H](NC(=O)c2conc2-c2ccc(Cl)cc2)C2CCCCC2)cc1` [Example 69, 3-(4-chlorophenyl)-N-[(1S)-1-cyclohexyl-2-[4-(3,5-dimethyl-1H-pyrazol-4-yl)anilino]-2-oxo-ethyl]isoxazole-4-carboxamide]: the EC50 is more than 1000 nM.

As for `Cc1n[nH]c(C)c1-c1ccc(NC(=O)[C@@H](NC(=O)c2cnn3ncccc23)C2CCCCC2)cc1` [Example 70, N-[(1S)-1-cyclohexyl-2-[4-(3,5-dimethyl-1H-pyrazol-4-yl)anilino]-2-oxo-ethyl]pyrazolo[1,5-b]pyridazine-3-carboxamide], the EC50 lay within 100 to 1000 nM.

As for `Cc1n[nH]c(C)c1-c1ccc(NC(=O)[C@@H](NC(=O)c2cn(C)c3ncccc23)C2CCCCC2)cc1` [Example 71, N-[(1S)-1-cyclohexyl-2-[4-(3,5-dimethyl-1H-pyrazol-4-yl)anilino]-2-oxo-ethyl]-1-methyl-pyrrolo[2,3-b]pyridine-3-carboxamide], the EC50 is 100 to 1000 nM.

For the molecule `Cc1n[nH]c(C)c1-c1ccc(NC(=O)[C@@H](NC(=O)c2cnc3ncccn23)C2CCCCC2)cc1` [Example 72, N-[(1S)-1-cyclohexyl-2-[4-(3,5-dimethyl-1H-pyrazol-4-yl)anilino]-2-oxo-ethyl]imidazo[1,2-a]pyrimidine-3-carboxamide], the EC50 is more than 1000 nM.

As for `Cc1n[nH]c(C)c1-c1ccc(NC(=O)[C@@H](NC(=O)c2coc3ccccc23)C2CCCCC2)cc1` [Example 73, N-[(1S)-1-cyclohexyl-2-[4-(3,5-dimethyl-1H-pyrazol-4-yl)anilino]-2-oxo-ethyl]benzofuran-3-carboxamide], the EC50 was 100 to 1000 nM.

For `Cc1n[nH]c(C)c1-c1ccc(NC(=O)[C@@H](NC(=O)c2csc3ccccc23)C2CCCCC2)cc1` [Example 74, N-[(1S)-1-cyclohexyl-2-[4-(3,5-dimethyl-1H-pyrazol-4-yl)anilino]-2-oxo-ethyl]benzothiophene-3-carboxamide], the EC50 lay in the range of 100 to 1000 nM.

Turning to `Cc1n[nH]c(C)c1-c1ccc(NC(=O)[C@@H](NC(=O)c2cnnn2C(C)C)C2CCCCC2)cc1` [Example 75, N-[(1S)-1-cyclohexyl-2-[4-(3,5-dimethyl-1H-pyrazol-4-yl)anilino]-2-oxo-ethyl]-3-isopropyl-triazole-4-carboxamide], the EC50 fell in the range of 100 to 1000 nM.
